Measured values from patent US20170275270A1, “BENZYL SUBSTITUTED INDAZOLES” (Bayer Pharma Aktiengesellschaft, priority 2014, published 2017).
Counter-ions that a name gives are not always drawn. Like-named read-outs stand apart in the source and are kept apart here.

Key:
[1] = biological target: T1, catalytic domain of human Bub1 (amino acids 704-1085) (Homo sapiens, UniProt O43683); assay: Bub1 kinase assay (TR-FRET); format: biochemical
T1 construct: catalytic domain of human Bub1 (amino acids 704-1085); His6 (N); made in house; host or cells: Hi5 insect cells
T1 sequence (O43683 704-1085): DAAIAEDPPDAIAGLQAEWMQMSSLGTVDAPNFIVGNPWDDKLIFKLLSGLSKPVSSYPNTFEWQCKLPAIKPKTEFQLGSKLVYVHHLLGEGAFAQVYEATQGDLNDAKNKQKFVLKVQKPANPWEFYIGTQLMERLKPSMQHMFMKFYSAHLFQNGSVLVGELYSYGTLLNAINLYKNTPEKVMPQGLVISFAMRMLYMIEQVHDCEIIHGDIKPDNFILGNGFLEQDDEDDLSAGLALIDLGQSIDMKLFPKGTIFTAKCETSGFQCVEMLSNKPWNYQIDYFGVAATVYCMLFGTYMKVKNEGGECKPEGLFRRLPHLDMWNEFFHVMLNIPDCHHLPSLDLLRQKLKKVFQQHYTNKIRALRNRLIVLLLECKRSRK
How it was run: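 Compounds from 2 mM DMSO stocks, serially diluted 1:3.4, incubated with enzyme at 22° C for 60 min. Stopped with EDTA, then 1 h with streptavidin-XL665, anti-phosphoserine antibody and Eu-labelled anti-mouse IgG. Phosphorylated biotin-peptide read by TR-FRET; IC50 by 4-parameter logistic fit.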

Bub1 = Bub1 (Homo sapiens, UniProt O43683); assay: Formation-Assay: phosphorylation status of histone 2A by inhibition of kinase activity of Bub1; format: cell-based; conditions: Biological Assay 4.1: H2A Formation IC50, co-treatment with Nocodazole 1 μg/ml, 16 h
Chain of Bub1 (O43683 whole entry): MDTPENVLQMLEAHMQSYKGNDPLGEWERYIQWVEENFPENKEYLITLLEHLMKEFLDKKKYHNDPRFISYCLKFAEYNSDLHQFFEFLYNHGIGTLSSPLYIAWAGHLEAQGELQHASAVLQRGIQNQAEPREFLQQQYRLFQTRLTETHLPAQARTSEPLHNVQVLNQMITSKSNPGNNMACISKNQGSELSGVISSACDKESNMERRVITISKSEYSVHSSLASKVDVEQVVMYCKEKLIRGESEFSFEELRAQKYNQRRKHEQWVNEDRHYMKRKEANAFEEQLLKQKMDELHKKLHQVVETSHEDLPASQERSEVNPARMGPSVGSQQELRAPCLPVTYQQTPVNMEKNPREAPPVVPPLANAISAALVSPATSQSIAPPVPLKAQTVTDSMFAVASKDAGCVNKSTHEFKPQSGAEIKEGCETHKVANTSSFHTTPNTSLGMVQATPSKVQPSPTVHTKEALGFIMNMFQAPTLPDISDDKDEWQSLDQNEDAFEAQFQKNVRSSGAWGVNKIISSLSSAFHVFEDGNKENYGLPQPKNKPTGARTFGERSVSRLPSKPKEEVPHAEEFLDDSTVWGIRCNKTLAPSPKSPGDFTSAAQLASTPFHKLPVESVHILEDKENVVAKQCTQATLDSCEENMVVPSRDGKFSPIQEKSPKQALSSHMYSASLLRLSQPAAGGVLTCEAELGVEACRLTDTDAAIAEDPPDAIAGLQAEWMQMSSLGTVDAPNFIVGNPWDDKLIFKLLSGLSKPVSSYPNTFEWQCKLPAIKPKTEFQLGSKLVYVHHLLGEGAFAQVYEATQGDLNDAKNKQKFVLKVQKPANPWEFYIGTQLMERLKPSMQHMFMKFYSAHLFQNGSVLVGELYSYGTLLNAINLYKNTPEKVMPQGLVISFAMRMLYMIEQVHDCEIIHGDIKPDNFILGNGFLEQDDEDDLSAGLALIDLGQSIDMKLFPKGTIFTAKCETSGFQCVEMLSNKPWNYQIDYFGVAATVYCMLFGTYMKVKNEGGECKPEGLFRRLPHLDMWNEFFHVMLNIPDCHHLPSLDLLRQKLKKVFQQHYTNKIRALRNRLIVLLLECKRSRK
Protocol: Biological Assay 4.1: Formation-Assay
Cell-Based Mechanistic Assay: Changes of Phosphorylation Status of Histone 2A by Inhibition of Kinase Activity of Bub1
This assay determines the suppression of histone 2A phosphorylation by a Bub1 kinase inhibitor during co-treatment with Nocodazole. 25000 cells (cells were ordered from ATCC) were seeded in 96 well plate for 5 h at 37° C. Cells were treated with Nocodazole (1 μg/ml) and varying concentrations (between 3 nM and 10 μM) of test compounds for 16 h. Cells were fixed (20 min, Fixing solution R&D), washed three times with PBS and blocked with Odyssey blocking buffer before incubating with the primary antibody against phosphorylated H2A (5 μg/ml ABIN482721) overnight at 2-8° C. After washing, secondary IRDye-labeled antibody mix with cell stains was added for 1 h and washed again with PBS. Plates were scanned with LiCor Odyssey Infrared Imager CLx at 800 nm for P-H2A and at 700 nm for cell stains Draq5/Sapphire. The quotient of 800 nm and 700 nm for Nocodazole only treated cells was set as 100% and the quotient of 800 nm and 700 nm of untreated cells was set as 0%.
Histone H2A is an immediate intracellular substrate of Bub1 kinase. Determination of the phosphorylation status of Histone H2A provides a direct measure of the intracellular activity of Bub1 kinase.

HeLa = assay: Proliferation assay (HeLa cell line); conditions: Homo sapiens, 96 h, read-out: Biological Assay 2: Proliferation assay (HeLa cell line) median IC50;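 further: crystal violet staining of cell number, scaled between a plate stained before dosing (0%) and cells left untreated (100%), compounds tested at 0.001-10 µM, IC50 via 4-parameter fit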
Protocol: Cultivated tumor cells (cells were ordered from ATCC, except HeLa-MaTu and HeLa-MaTu-ADR, which were ordered from EPO-GmbH, Berlin) were plated at a density of 1000 to 5000 cells/well, depending on the growth rate of the respective cell line, in a 96-well multititer plate in 200 μL of their respective growth medium supplemented 10% fetal calf serum. After 24 hours, the cells of one plate (zero-point plate) were stained with crystal violet (see below), while the medium of the other plates was replaced by fresh culture medium (200 μL), to which the test substances were added in various concentrations (0 μM, as well as in the range of 0.001-10 μM; the final concentration of the solvent dimethyl sulfoxide was 0.5%). The cells were incubated for 4 days in the presence of test substances. Cell proliferation was determined by staining the cells with crystal violet: the cells were fixed by adding 20 μL measuring point of an 11% glutaric aldehyde solution for 15 minutes at room temperature. After three washing cycles of the fixed cells with water, the plates were dried at room temperature. The cells were stained by adding 100 μL/measuring point of a 0.1% crystal violet solution (pH 3.0). After three washing cycles of the stained cells with water, the plates were dried at room temperature. The dye was dissolved by adding 100 μl/measuring point of a 10% acetic acid solution. […] The change of cell number, in percent, was calculated by normalization of the measured values to the absorbtion values of the zero-point plate (=0%) and the absorbtion of the untreated (0 μm) cells (=100%). The IC50 values were determined by means of a 4 parameter fit.

[2] = tested on: HeLa human cervical tumor cells; assay: Proliferation assay (HeLa+Paclitaxel); conditions: read-out: Biological Assay 3: HeLa + Paclitaxel IC50, 3 nM paclitaxel, crystal violet;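 further: compounds at 0.001-10 µM added 4 h after paclitaxel, 92 h exposure, absorbance normalized to zero-point plate (0%) and untreated cells (100%), IC50 from 4-parameter fit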
[3] = 10 μM ATP, read-out: Biological Assay 1: Bub1 kinase assay median IC50
[4] = Biological Assay 1: Bub1 kinase assay median IC50, 10 μM ATP

SMILES | IC50 [1, 3] [nM] | IC50 (Bub1) [nM] | IC50 [1, 4] [nM] | IC50 (HeLa) [nM] | IC50 [2] [nM]
CCOc1cc(F)c(Cn2nc(-c3nc(C)cc(Nc4ccncc4C(N)=O)n3)c3ccccc32)c(F)c1 [Example 2-10-2, 4-({2-[1-(4-ethoxy-2,6-difluorobenzyl)-1H-indazol-3-yl]-6-methylpyrimidin-4-yl}amino)pyridine-3-carboxamide] | 5.5 | 140 |  |  | 
CCOc1cc(F)c(Cn2nc(-c3ncc(OCC(=O)N4CC(F)(F)C4)c(Nc4ccncc4)n3)c3ccccc32)c(F)c1 [Example 3-5-1, 1-(3,3-difluoroazetidin-1-yl)-2-({2-[1-(4-ethoxy-2,6-difluorobenzyl)-1H-indazol-3-yl]-4-(pyridin-4-ylamino)pyrimidin-5-yl}oxy)ethanone, reference compound] |  | 360 | 8 | 3900 | 
Cc1nccc(Nc2nc(-c3nn(Cc4c(F)cc(OCCO)cc4F)c4ccccc34)ncc2C2CCN(CC(F)F)CC2)n1 [Example 2-6-17, 2-{4-[(3-{5-[1-(2,2-difluoroethyl)piperidin-4-yl]-4-[(2-methylpyrimidin-4-yl)amino]pyrimidin-2-yl}-1H-indazol-1-yl)methyl]-3,5-difluorophenoxy} ethanol] |  | 6 | 58 | 6800 | 
CCOc1cc(F)c(Cn2nc(-c3ncc(CCS(C)(=O)=O)c(Nc4ccncc4)n3)c3ccccc32)c(F)c1 [Example 2-3-1, 2-[1-(4-ethoxy-2,6-difluorobenzyl)-1H-indazol-3-yl]-5-[2-(methylsulfonyl)ethyl]-N-(eparate-4-yl)pyrimidin-4-amine] |  | 2300 | 6.1 | 3500 | 
CCOc1cc(F)c(Cn2nc(-c3nc(CN4CCOCC4)cc(Nc4cc(O)ncn4)n3)c3ccccc32)c(F)c1 [Example 2-12-45, 6-({2-[1-(4-ethoxy-2,6-difluorobenzyl)-1H-indazol-3-yl]-6-(morpholin-4-ylmethyl)pyrimidin-4-yl}amino)pyrimidin-4-ol] |  |  | 760 | > 10000 | 380
CCOc1cc(F)c(Cn2nc(-c3nc(Nc4ccncn4)cc(C4CCCO4)n3)c3ccccc32)c(F)c1 (racemic) [Example 2-12-86, 2-[1-(4-ethoxy-2,6-difluorobenzyl)-1H-indazol-3-yl]-N-(pyrimidin-4-yl)-6-[(2rac)-tetrahydrofuran-2-yl]pyrimidin-4-amine] |  |  | 7.5 | 3900 | 1400
CCOc1cc(F)c(Cn2nc(-c3nc(Nc4ccncc4OC)cc(-c4ccn(C)n4)n3)c3ccccc32)c(F)c1 [Example 2-12-94, 2-[1-(4-ethoxy-2,6-difluorobenzyl)-1H-indazol-3-yl]-N-(3-methoxypyridin-4-yl)-6-(1-methyl-1H-pyrazol-3-yl)pyrimidin-4-amine] |  |  | 9.7 | 3900 | 2300
CCOc1cc(F)c(Cn2nc(-c3nc(Nc4ccncn4)cc(-c4nccs4)n3)c3ccccc32)c(F)c1 [Example 2-12-95, 2-[1-(4-ethoxy-2,6-difluorobenzyl)-1H-indazol-3-yl]-N-(pyrimidin-4-yl)-6-(1,3-thiazol-2-yl)pyrimidin-4-amine] |  |  | 26 | > 10000 | 9800
CC1(C)CCc2c(nc(-c3nn(Cc4c(F)cc(OCCO)cc4F)c4ccccc34)nc2Nc2ccncc2Cl)C1 [Example 2-6-25, 2-{4-[(3-{4-[(3-chloropyridin-4-yl)amino]-7,7-dimethyl-5,6,7,8-tetrahydroquin-azolin-2-yl}-1H-indazol-1-yl)methyl]-3,5-difluorophenoxy} ethanol] |  |  | 48 | 7600 | 370
COCCOc1cc(F)c(Cn2nc(-c3nc(CN4CCOCC4)cc(Nc4ccncc4)n3)c3ccccc32)c(F)c1 [Example 2-12-43, 2-{1-[2,6-difluoro-4-(2-methoxyethoxy)benzyl]-1H-indazol-3-yl}-6-(morpholin-4-ylmethyl)-N-(pyridin-4-yl)pyrimidin-4-amine] |  |  | 9.6 | 3600 | 250
COCCOc1cc(F)c(Cn2nc(-c3nc4c(c(Nc5ccncc5OC)n3)CCC4)c3ccccc32)c(F)c1 [Example 2-12-31, 2-{1-[2,6-difluoro-4-(2-methoxyethoxy)benzyl]-1H-indazol-3-yl}-N-(3-methoxypyridin-4-yl)-6,7-dihydro-5H-cyclopenta[d]pyrimidin-4-amine] |  |  | 13 | 3900 | 80
CCOc1cc(F)c(Cn2nc(-c3nc(Nc4cc(C)ncc4C)cc(C(F)(F)F)n3)c3ccccc32)c(F)c1 [Example 2-12-82, N-(2,5-dimethylpyridin-4-yl)-2-[1-(4-ethoxy-2,6-difluorobenzyl)-1H-indazol-3-yl]-6-(trifluoromethyl)pyr-imidin-4-amine] | > 20000 | 30 |  |  | 
CCOc1cc(F)c(Cn2nc(-c3nc4c(c(Nc5cc(Cl)ncn5)n3)CCC4)c3ccccc32)c(F)c1 [Example 2-12-32, N-(6-chloropyrimidin-4-yl)-2-[1-(4-ethoxy-2,6-difluorobenzyl)-1H-indazol-3-yl]-6,7-dihydro-5H-cyclopenta[d]pyrimidin-4-amine] |  |  | 330 | > 10000 | 530
COCCOc1cc(F)c(Cn2nc(-c3nc4c(c(Nc5ccncc5Cl)n3)CCC4)c3ccccc32)c(F)c1 [Example 2-12-30, N-(3-chloropyridin-4-yl)-2-{1-[2,6-difluoro-4-(2-methoxyethoxy)benzyl]-1H-indazol-3-yl}-6,7-dihydro-5H-cyclopenta[d]pyrimidin-4-amine] |  |  | 60 | 8600 | 140

Continued, values first:

IC50 [1, 3] [nM] | IC50 (Bub1) [nM] | IC50 [1, 4] [nM] | IC50 (HeLa) [nM] | IC50 [2] [nM] | SMILES
9.4 | 17 |  | 1300 |  | CCOc1cc(F)c(Cn2nc(-c3ncc(C4CNC4)c(Nc4ccncc4)n3)c3ccccc32)c(F)c1 [Example 2-9-1, 5-(azetidin-3-yl)-2-[1-(4-ethoxy-2,6-difluorobenzyl)-1H-indazol-3-yl]-N-(pyridin-4-yl)pyrimidin-4-amine, salt with hydrochloric acid]
 | 130 | 9.9 | 2100 |  | CC(=O)Nc1cc(Nc2nc(-c3nn(Cc4c(F)cc(OCCO)cc4F)c4ccccc34)nc3c2CCC3)ccn1 [Example 2-4-6, N-{4-[(2-{1-[2,6-difluoro-4-(2-hydroxyethoxy)benzyl]-1H-indazol-3-yl}-6,7-dihydro-5H-cyclopenta[d]pyrimidin-4-yl)amino]pyridin-2-yl}acetamide]
 | 990 | 9 | 2800 |  | CCOc1cc(F)c(Cn2nc(-c3ncc(CCCS(C)(=O)=O)c(Nc4ccncc4)n3)c3ccccc32)c(F)c1 [Example 2-3-2, 2-[1-(4-ethoxy-2,6-difluorobenzyl)-1H-indazol-3-yl]-5-[3-(methylsulfonyl)propyl]-N-(pyridin-4-yl)pyrimidin-4-amine]
 | 8.3 | 23 | 1700 |  | CCOc1cc(F)c(Cn2nc(-c3ncc(C4CCN(CC(F)F)CC4)c(Nc4ccncc4OC)n3)c3ccccc32)c(F)c1 [Example 2-11-5, 5-[1-(2,2-difluoroethyl)piper-idin-4-yl]-2-[1-(4-ethoxy-2,6-difluorobenzyl)-1H-indazol-3-yl]-N-(3-methoxypyridin-4-yl)pyrimidin-4-amine]
5.1 |  |  | 3400 | 1100 | COc1cnccc1Nc1nc(-c2nn(Cc3c(F)cc(OCCO)cc3F)c3ccccc23)ncc1C [Example 2-6-34, 2-{3,5-difluoro-4-[(3-{4-[(3-methoxypyridin-4-yl)amino]-5-methylpyrimidin-2-yl}-1H-indazol-1-yl)methyl]phenoxy}ethanol]
5.4 |  |  | 2300 | 1300 | Cc1cc(Nc2ccncc2OC(F)(F)F)nc(-c2nn(Cc3c(F)cc(OCCO)cc3F)c3ccccc23)n1 [Example 2-6-35, 2-(3,5-difluoro-4-{[3-(4-methyl-6-{[3-(trifluoromethoxy)pyridin-4-yl]amino}pyrimidin-2-yl)-1H-indazol-1-yl]methyl}phenoxy)ethanol]
 |  | 5.8 | 1200 | 200 | CCOc1cc(F)c(Cn2nc(-c3nc(Nc4ccncc4OC)cc(C4CCCO4)n3)c3ccccc32)c(F)c1 (racemic) [Example 2-12-88, 2-[1-(4-ethoxy-2,6-difluorobenzyl)-1H-indazol-3-yl]-N-(3-methoxypyridin-4-yl)-6-[(2rac)-tetrahydrofuran-2-yl]pyrimidin-4-amine]
